The values below come from patent US12091402B2 (Avilar Therapeutics, Inc., priority 2021, dated 2024).

pKd: −log10 of the molar value. Where a SMILES comes first, the peptide text is derived from it. Bridges are numbered along the chain shown (N, C = ends). The star is where a group is joined. X4 = O=C(CCCc1cn(C[C@H]2OC[C@H](Nc3nccc(C(F)(F)F)n3)[C@@H](O)[C@H]2O)nn1)*; PEG4 = NCCOCCOCCOCCOCCC(=O)O Some results are limits rather than exact numbers.

The target of this experiment is T1, ASGPR (Homo sapiens, UniProt P07306).
T1 sequence (P07306 1-291): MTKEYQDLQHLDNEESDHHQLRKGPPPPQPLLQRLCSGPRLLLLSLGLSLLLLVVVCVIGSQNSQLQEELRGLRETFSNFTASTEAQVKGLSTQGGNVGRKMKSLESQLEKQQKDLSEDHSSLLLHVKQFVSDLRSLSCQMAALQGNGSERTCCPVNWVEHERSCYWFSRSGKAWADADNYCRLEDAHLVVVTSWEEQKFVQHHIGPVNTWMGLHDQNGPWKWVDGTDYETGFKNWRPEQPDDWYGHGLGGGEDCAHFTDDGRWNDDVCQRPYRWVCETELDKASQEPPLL
Kind of experiment: Affinity to ASGPR by surface plasmon resonance (SPR).

As for `OCc1cnn(C[C@H]2OC[C@H](Nc3nccc(C(F)(F)F)n3)[C@@H](O)[C@H]2O)c1` [A62, (2R,3R,4R,5S)-2-((4-(hydroxymethyl)-1H-pyrazol-1-yl)methyl)-5-((4-(trifluoromethyl)pyrimidin-2-yl)amino)tetrahydro-2H-pyran-3,4-diol], the pKd is 5.00 to 6.00.
`COc1cc(N[C@H]2[C@H]3OC[C@](CO)(O3)[C@H](O)[C@@H]2O)nc(C(F)(F)F)n1` [A47, (1S,2R,3R,4R,5S)-1-(hydroxymethyl)-4-((6-methoxy-2-(trifluoromethyl)pyrimidin-4-yl)amino)-6,8-dioxabicyclo[3.2.1]octane-2,3-diol] had a pKd of over 6.00.
In turn, `N#Cc1cc(F)cnc1N[C@H]1[C@H]2OC[C@](CO)(O2)[C@H](O)[C@@H]1O` [A40, 2-[[(1S,2R,3R,4R,5S)-2,3-dihydroxy-1-(hydroxymethyl)-6,8-dioxabicyclo[3.2.1]octan-4-yl]amino]-5-fluoro-pyridine-3-carbonitrile] showed a pKd of 5.00 to 6.00.
As for `O[C@@H]1[C@H](O)[C@@H](Nc2nccc(C(F)(F)F)n2)CO[C@@H]1c1nc2ccc(Br)cc2[nH]1` [A94, (2R,3R,4R,5S)-2-(6-bromo-1H-benzo[d]imidazol-2-yl)-5-((4-(trifluoromethyl)pyrimidin-2-yl)amino)tetrahydro-2H-pyran-3,4-diol], the pKd was under 4.70.
The molecule `N#Cc1ccnnc1N[C@H]1[C@H]2OC[C@](CO)(O2)[C@H](O)[C@@H]1O` [A39, 3-[[(1S,2R,3R,4R,5S)-2,3-dihydroxy-1-(hydroxymethyl)-6,8-dioxabicyclo[3.2.1]octan-4-yl]amino]pyridazine-4-carbonitrile] had a pKd of 5.00 to 6.00.
`O=C(NC[C@H]1OC[C@H](Nc2cncc(C(F)(F)F)n2)[C@@H](O)[C@H]1O)C12CC(C1)C2` [A102, N-(((2R,3R,4R,5S)-3,4-dihydroxy-5-((6-(trifluoromethyl)pyrazin-2-yl)amino)tetrahydro-2H-pyran-2-yl)methyl)bicyclo[1.1.1]pentane-1-carboxamide] gave a pKd of over 6.00.
As to `CN(c1nccc(C(F)(F)F)n1)[C@H]1CO[C@H](CO)[C@H](O)[C@@H]1O` [A60, (2R,3R,4R,5S)-2-(hydroxymethyl)-5-(methyl(4-(trifluoromethyl)pyrimidin-2-yl)amino)tetrahydro-2H-pyran-3,4-diol], the pKd is 5.00 to 6.00.
Molecule `NC(COCCC(=O)NCCOCCOCCOCCOC[C@H]1OC[C@H](Nc2cncc(C(F)(F)F)n2)[C@@H](O)[C@H]1O)COCCC(=O)NCCOCCOCCOCCOC[C@H]1OC[C@H](Nc2cncc(C(F)(F)F)n2)[C@@H](O)[C@H]1O` [A131] showed a pKd of over 7.00.
For `N#Cc1cc(N[C@H]2[C@H]3OC[C@](CO)(O3)[C@H](O)[C@@H]2O)cnc1Cl` [A41, 2-chloro-5-[[(1S,2R,3R,4R,5S)-2,3-dihydroxy-1-(hydroxymethyl)-6,8-dioxabicyclo[3.2.1]octan-4-yl]amino]pyridine-3-carbonitrile] the value was 5.00 to 6.00.
For `O=C(O)COCCOCCOCC(=O)NC(COCCC(=O)NCCOCCOCCOCCOC[C@H]1OC[C@H](Nc2nccc(C(F)(F)F)n2)[C@@H](O)[C@H]1O)COCCC(=O)NCCOCCOCCOCCOC[C@H]1OC[C@H](Nc2nccc(C(F)(F)F)n2)[C@@H](O)[C@H]1O` [A23, 1-((2R,3R,4R,5S)-3,4-dihydroxy-5-((4-(trifluoromethyl)pyrimidin-2-yl)amino)tetrahydro-2H-pyran-2-yl)-20-(1-((2R,3R,4R,5S)-3,4-dihydroxy-5-((4-(trifluoromethyl)pyrimidin-2-yl)amino)tetrahydro-2H-pyran-2-yl)-15-oxo-2,5,8,11,18-pentaoxa-14-azanonadecan-19-yl)-15,22-dioxo-2,5,8,11,18,24,27,30-octaoxa-14,21-diazadotriacontan-32-oic acid] the value was over 7.00; for `[N-]=[N+]=NCCCCCC(=O)NC(COCc1cn(CCOCCOCCOCCOC[C@H]2OC[C@H](Nc3nccc(C(F)(F)F)n3)[C@@H](O)[C@H]2O)nn1)COCc1cn(CCOCCOCCOCCOC[C@H]2OC[C@H](Nc3nccc(C(F)(F)F)n3)[C@@H](O)[C@H]2O)nn1` [A15, 6-azido-N-(1,3-bis((1-(1-((2R,3R,4R,5S)-3,4-dihydroxy-5-((4-(trifluoromethyl)pyrimidin-2-yl)amino)tetrahydro-2H-pyran-2-yl)-2,5,8,11-tetraoxatridecan-13-yl)-1H-1,2,3-triazol-4-yl)methoxy)propan-2-yl)hexanamide], over 7.00; for `NC(COCCC(=O)NCCOCCOCCOCCOC[C@H]1OC[C@H](Nc2nccc(C(F)(F)F)n2)[C@@H](O)[C@H]1O)COCCC(=O)NCCOCCOCCOCCOC[C@H]1OC[C@H](Nc2nccc(C(F)(F)F)n2)[C@@H](O)[C@H]1O` [A13, 3,3′-((2-aminopropane-1,3-diyl)bis(oxy))bis(N-(1-((2R,3R,4R,5S)-3,4-dihydroxy-5-((4-(trifluoromethyl)pyrimidin-2-yl)amino)tetrahydro-2H-pyran-2-yl)-2,5,8,11-tetraoxatridecan-13-yl)propanamide)], over 7.00.
`OC[C@H]1OC[C@H](Nc2cc(C(F)(F)F)nc(Cl)n2)[C@@H](O)[C@H]1O` [A78, (2R,3R,4R,5S)-5-((2-chloro-6-(trifluoromethyl)pyrimidin-4-yl)amino)-2-(hydroxymethyl)tetrahydro-2H-pyran-3,4-diol] showed a pKd of under 4.70.
For the molecule `CC(C)C[C@@H]1NC(=O)[C@@H](NC(=O)[C@@H](NC(=O)[C@H](CCC(N)=O)NC(=O)[C@H](Cc2c[nH]cn2)NC(=O)CCOCCOCCOCCOCCNC(=O)CCCc2cn(C[C@H]3OC[C@H](Nc4nccc(C(F)(F)F)n4)[C@@H](O)[C@H]3O)nn2)C(C)C)CSSC[C@@H](C(=O)N[C@@H](Cc2ccccc2)C(=O)N[C@@H](CO)C(=O)N[C@H](C(N)=O)[C@@H](C)O)NC(=O)[C@H](C(C)C)NC(=O)[C@@H]2CCCN2C(=O)[C@H](CCCNC(=N)N)NC(=O)CNC(=O)[C@H](CCCNC(=N)N)NC(=O)[C@H](Cc2ccc(O)cc2)NC(=O)[C@H](CO)NC1=O` [Compound 18] ({X4-PEG4}-HQVCLSYRGRPVCFST-NH2; disulfide 4-13), the pKd was 6.00 to 6.30.
For `COCCO[C@@H]1O[C@H](CO)[C@H](O)[C@H](O)[C@H]1Nc1cncc(C(F)(F)F)n1` [A105, (2R,3R,4R,5R,6R)-2-(hydroxymethyl)-6-(2-methoxyethoxy)-5-((6-(trifluoromethyl)pyrazin-2-yl)amino)tetrahydro-2H-pyran-3,4-diol] the value was 5.00 to 6.00.
In turn, `O=C(O)CNC(COCCC(=O)NCCOCCOCCOCCOC[C@H]1OC[C@H](Nc2cncc(C(F)(F)F)n2)[C@@H](O)[C@H]1O)COCCC(=O)NCCOCCOCCOCCOC[C@H]1OC[C@H](Nc2cncc(C(F)(F)F)n2)[C@@H](O)[C@H]1O` [A31, (1,39-bis((2R,3R,4R,5S)-3,4-dihydroxy-5-((6-(trifluoromethyl)pyrazin-2-yl)amino)tetrahydro-2H-pyran-2-yl)-15,25-dioxo-2,5,8,11,18,22,29,32,35,38-decaoxa-14,26-diazanonatriacontan-20-yl)glycine] showed a pKd of over 7.00.
`COc1cccc(-c2cn(C[C@H]3OC[C@H](Nc4nccc(C(F)(F)F)n4)[C@@H](O)[C@H]3O)nn2)c1` [A65, (2R,3R,4R,5S)-2-((4-(3-methoxyphenyl)-1H-1,2,3-triazol-1-yl)methyl)-5-((4-(trifluoromethyl)pyrimidin-2-yl)amino)tetrahydro-2H-pyran-3,4-diol] gave a negative-log Kd (pKd) of over 6.00.
